Laboratory results as given in patent US7556935B2 (Dana-Farber Cancer Institute, Inc., priority 2001, dated 2009).
Read-outs that look alike come from different tables or passages of the source.

Tests used:
[1] = system: c-Abl; test: Mitochondrial c-Abl kinase activity, GST-Crk(120-225) phosphorylation, ER stress; format: cell-based; conditions: anti-c-Abl immunoprecipitates of mitochondrial fraction
Method: (§1) The supernatant was collected and centrifuged at 10,000×g for 10 minutes. […] Protein concentration was determined by the Bio-Rad protein estimation kit.
Analysis of c-Abl activity: Cell lysates were prepared as described in Example 1 and subjected to immunoprecipitation with anti-c-Abl (K-12; Santa Cruz). The immunoprecipitates were resuspended in kinase buffer (see Example 1) containing […] of [g-32P]ATP and GST-Crk(120-225) or GST-Crk(120-212) for 15 minutes at 30° C. The reaction products were analyzed by SDS-PAGE and autoradiography.

[2] = system: c-Abl; test: c-Abl levels in the ER fraction, ER stress; format: cell-based
Method: (§2) Cells were treated with A23187 (Sigma) or Brefeldin A (Sigma).
(§3) Isolation of the ER fraction: Cells were washed with PBS, lysed in homogenization buffer (50 mM Tris-HCl, pH 8.0, 1 mM b-mercaptoethanol, 1 mM EDTA, 0.32 M sucrose and 0.1 mM PMSF), and then centrifuged at 5,000×g for 10 minutes. The supernatant was collected and centrifuged at 105,000×g for 1 hour. […] The resulting supernatant was used as the ER fraction.

[3] = system: grp78; test: grp78 expression in the ER fraction, ER stress; format: cell-based
Method: as §2, §3

[4] = system: MEFs; test: Apoptosis by sub-G1 DNA in MEFs under ER stress; format: cell-based, mouse; conditions: c-Abl−/− cells
Method: Apoptosis assays: DNA content was assessed by staining ethanol-fixed cells with propidium iodide and monitoring by FACScan (Becton-Dickinson).

[5] = system: c-Abl; test: c-Abl targeting to mitochondria under ER stress, immunofluorescence and immunoblot; format: cell-based; conditions: mitochondrial fraction
Method: as §2
Digital confocal immunofluorescence microscope: Cells grown on poly-D-lysine coated glass coverslips were fixed (3.7% formaldehyde in PBS, pH 7.4; 10 minutes), permeabilized (0.2% Triton X-100; 10 min), blocked for 30 minutes in media containing serum. After rinsing with PBS, immunostaining was performed by incubating the cells with 50 ng/slide of anti-c-Abl (K-12 rabbit polyclonal; Santa Cruz) and anti-grp-78 (C-20 goat polyclonal; Santa Cruz). For c-Abl and calreticulin staining, cells were incubated first with anti-c-Abl alone for 1 hour followed by blocking for 30 minutes in media containing serum. After washing with PBS, cells were then incubated with anti-calreticulin (rabbit polyclonal; StressGen). Finally, cells were incubated with a 1:250 dilution of CY-3 or Fluorescein (FITC)-conjugated anti-rabbit or anti-goat secondary antibodies (Jackson ImmunoResearch) for 1 hour. Mitochondria were stained with 0.006 ng/slide Mitotracker Green FM (Molecular Probes). Nuclei were stained with 4,6-diamino-2-phenylindole (DAPI; 1 mg/ml in PBS). Coverslips were mounted onto slides with 0.1 M Tris (pH 7.0) in 50% glycerol. Cells were visualized by digital confocal immunofluorescence and images were captured with cooled CCD camera mounted on a Zeiss Axioplan 2 microscope. Images were deconvolved using Slidebook software (Intelligent Imaging Innovations, Inc., Denver, Colo.).
as §1

[6] = system: c-Abl; test: c-Abl levels in cytoplasmic and nuclear fractions, ER stress; format: cell-based
From the text: Isolation of cytoplasmic and nuclear fractions: The cytoplasmic and nuclear fractions were isolated as described in Example 1.

[7] = system: c-Abl; test: c-Abl translocation to mitochondria in MEFs, oxidative stress; format: cell-based, mouse; conditions: MEFs
Method: Cells were treated with 1 mM H2O2 (Sigma) and 30 mM N-acetyl-L-cysteine (NAC; Sigma). Transient transfections were performed in the presence of calcium phosphate.
Immunofluorescence microscopy: Cells were plated onto poly D-lysine coated glass coverslips 1 day prior to H2O2 treatment (1 hour) and then fixed with 3.7% formaldehyde/PBS (pH 7.4) for 10 minutes. Cells were washed with PBS, permeabilized with 0.2% Triton X-100 for 10 minutes, washed again and incubated for 30 minutes in complete medium. The coverslips were then incubated with […] of anti-c-Abl (K-12) for 1 hour followed by Texas Red-goat anti-rabbit Ig (H+L) conjugate (Molecular Probes, Eugene, Oreg.). Mitochondria were stained with 100 nM Mitotracker Green FM (Molecular Probes, OR). Nuclei were stained with 4,6-diamino-2-phenylindole (DAPI; 1 mg/ml in PBS). Coverslips were mounted onto slides with 0.1 M Tris (pH 7.0) in 50% glycerol. Cells were visualized by digital confocal immunofluorescence and images were captured with a cooled CCD camera mounted on a Zeiss Axioplan 2 microscope. Images were deconvolved using Slidebook software (Intelligent Imaging Innovations, Inc., Denver, Colo.).
Protein concentration was determined by the Bio-Rad protein estimation kit.
Preparation of cell lysates: Whole cell lysates (WCL) were prepared as described (Kharbanda et al. (1995) Nature 376, 785-788) and analyzed for protein concentration.
Immunoprecipitation and immunoblot analysis. Soluble proteins ([…]) were incubated with anti-c-Abl (K-12; Santa Cruz Biotechnology) for 1 hour and precipitated with protein A-sepharose for 30 minutes. Immunoprecipitates and lysates ([…]) were resolved by SDS-PAGE and analyzed by immunoblotting with anti-c-Abl (24-11; Santa Cruz), anti-HSP60 (Stressgen, Victoria, British Columbia), anti-b-actin (Sigma) anti-PCNA (Calbiochem), anti-PDGF receptor (Oncogene) and anti-PKCd (Santa Cruz).

[8] = target: T1, PKCd (Homo sapiens, UniProt Q05655); test: PKCd translocation to mitochondria in U-937 cells, immunoblot of fractions; format: cell-based; design: subjecting cytoplasmic and mitochondrial fractions to immunoblotting with anti-PKC antibodies; endogenous in cells; host or cells: U-937
Method: (§4) Cells were also treated with 10 μM rottlerin (Calbiochem).
Mitochondria were stained with 0.006 ng/slide of Mitotracker Green FM (Molecular Probes). The slides were analyzed using a Zeiss Auxiphot fluorescence microscope coupled to a CCD camera and a power Macintosh 8100. Image analysis was performed using the IPLab Spectrum 3.1 software (Signal Analytics).
(§5) Transfections were performed with Superfect (Qiagen).
(§6) The cells were disrupted by Douce homogenization.
(§7) The supernatants (S1) were collected.
Mitochondria were stained with 0.006 ng/slide of Mitotracker Green FM (Molecular Probes). The slides were analyzed with a Zeiss Auxiphot fluorescence microscope coupled to a CCD camera and a power Macintosh 8100. Image analysis was performed using the IPLab Spectrum 3.1 software (Signal Analytics).

[9] = system: c-Abl; test: c-Abl immune complex kinase assay, phosphorylation of GST-Crk(120-225), COS7 cells; format: cell-based; conditions: 30 mM NAC
Method: Cell culture: COS7 cells and mouse embryonic fibroblasts (MEFs) derived from wild-type and c-Abl^−/− mice were cultured in Dulbecco's modified Eagle's medium containing 10% heat-inactivated fetal calf serum, 2 mM L-glutamine, 100 units/ml penicillin and 100 μg/ml streptomycin. DLD1 cells were grown as described (Polyak et al. (1997) Nature 389, 300-305). Cells were treated with H2O2 (Sigma), 30 mM N-acetyl-L-cysteine (NAC; Sigma) or 10 μM cis-platinum (Sigma).
(§8) Analysis of kinase activity: Cell lysates were prepared in lysis buffer (10 mM Tris-HCl, pH 7.5, 10 mM NaCl, 1 mM DTT, 0.1 mM EDTA, 3 mM MgCl2, 0.5 mM PMSF, 5 μg/ml leupeptin) containing 0.5% Nonidet P-40 and subjected to immunoprecipitation as described (Kharbanda et al. (1997) Nature 386, 732-735) with anti-c-Abl (sc-23; Santa Cruz) or mouse IgG (Santa Cruz). The immunoprecipitates were resuspended in kinase buffer (20 mM HEPES, pH 7.4, 10 mM MgCl2, 10 mM MnCl2) containing 2.5 μCi [g-32P]ATP and GST-Crk(120-225) or GST-Crk(120-212) for 20 minutes at 30° C. Anti-PKCd (sc-937; Santa Cruz) and anti-ERK1 (sc-93; Santa Cruz) immunoprecipitates were analyzed by using histone H1 and myelin basic protein (Upstate Biotecnology Inc.), respectively, as substrates. The reaction products were analyzed by SDS-PAGE and autoradiography.

[10] = system: cytochrome c; test: Cytochrome c release in U-937 cells, immunoblot of cytoplasmic fractions; format: cell-based, human; conditions: for effect on H2O2-induced release of cytochrome c: U-937 cells pretreated with NAC (30 mM) or rottlerin (10 µM); for cytochrome c release: U-937 cells, agent alone
Method: as §4, §5, §6

[11] = system: MCF-7/neo cells; test: Apoptosis by sub-G1 DNA content in MCF-7/neo cells
[12] = target: T1, PKCd; conditions: MCF-7 cells, TPA
Method: Cell culture and reagents: Human U-937 myeloid leukemia cells (ATCC, Rockville, Md.) were grown in RPMI 1640 medium supplemented with 10% heat-inactivated fetal bovine serum (FBS), 100 units/ml penicillin, 100 μg/ml streptomycin, and 2 mM L-glutamine. MCF-7, MCF-7/neo, MCF-7/PKCdRD and 293T cells were grown in Dulbecco's modified Eagle's medium (DMEM) containing 10% FBS. […] Cells were also treated with 10 μM rottlerin (Calbiochem).

[13] = system: PKCζ; test: Cytoplasmic or mitochondrial PKCζ levels in U-937 cells, immunoblot; conditions: TPA
[14] = target: PKCγ (Homo sapiens, UniProt P05129); test: Cytoplasmic or mitochondrial PKCγ levels in U-937 cells, immunoblot; conditions: TPA
[15] = system: c-Abl; test: c-Abl activity in cytoplasts devoid of nuclei; format: cell-based
Method: as §8

[16] = system: catalase; test: Catalase levels in MEFs; format: cell-based, mouse
From the text: As a control, degradation was inhibited when [g-S]ATP was substituted for ATP to prevent ubiquitination. […] Lactacystin, another proteosome inhibitor, was used to assess degradation of catalase in cells.

[17] = system: U-937 cells; test: Apoptosis by sub-G1 DNA content in U-937 cells; format: cell-based, human
[18] = target: PKCd (Mus musculus, UniProt P28867); design: effect on H2O2-induced translocation of PKCd to mitochondria: dose or concentration left out as unconfirmed; conditions: NIH3T3 cells, rottlerin
Method: as §5, §7

[19] = system: mitochondrial transmembrane potential; test: Mitochondrial transmembrane potential, Rhodamine 123 staining, MEFs; design: effect on H2O2-induced change in Ψ: dose or concentration left out as unconfirmed; conditions: wild-type MEFs pretreated with cyclosporin A

T1 sequence (Q05655 whole entry): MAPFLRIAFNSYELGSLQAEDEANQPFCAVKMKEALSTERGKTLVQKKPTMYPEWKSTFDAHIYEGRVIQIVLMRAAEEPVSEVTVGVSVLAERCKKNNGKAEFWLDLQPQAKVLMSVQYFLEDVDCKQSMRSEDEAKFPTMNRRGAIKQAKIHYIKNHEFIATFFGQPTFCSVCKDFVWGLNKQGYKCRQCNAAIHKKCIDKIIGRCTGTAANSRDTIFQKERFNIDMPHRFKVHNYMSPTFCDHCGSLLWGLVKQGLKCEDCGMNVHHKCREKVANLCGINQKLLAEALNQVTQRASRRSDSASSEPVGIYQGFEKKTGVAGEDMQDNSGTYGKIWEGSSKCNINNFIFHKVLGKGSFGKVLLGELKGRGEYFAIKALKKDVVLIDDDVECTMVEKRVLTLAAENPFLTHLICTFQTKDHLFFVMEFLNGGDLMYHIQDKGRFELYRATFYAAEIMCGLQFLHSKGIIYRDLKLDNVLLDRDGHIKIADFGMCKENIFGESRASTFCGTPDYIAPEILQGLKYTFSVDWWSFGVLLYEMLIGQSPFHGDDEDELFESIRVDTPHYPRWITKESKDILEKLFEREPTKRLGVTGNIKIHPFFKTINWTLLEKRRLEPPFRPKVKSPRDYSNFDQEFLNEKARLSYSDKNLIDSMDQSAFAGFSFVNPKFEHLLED
Sequence of PKCd (Mus musculus, UniProt P28867) (P28867 whole entry): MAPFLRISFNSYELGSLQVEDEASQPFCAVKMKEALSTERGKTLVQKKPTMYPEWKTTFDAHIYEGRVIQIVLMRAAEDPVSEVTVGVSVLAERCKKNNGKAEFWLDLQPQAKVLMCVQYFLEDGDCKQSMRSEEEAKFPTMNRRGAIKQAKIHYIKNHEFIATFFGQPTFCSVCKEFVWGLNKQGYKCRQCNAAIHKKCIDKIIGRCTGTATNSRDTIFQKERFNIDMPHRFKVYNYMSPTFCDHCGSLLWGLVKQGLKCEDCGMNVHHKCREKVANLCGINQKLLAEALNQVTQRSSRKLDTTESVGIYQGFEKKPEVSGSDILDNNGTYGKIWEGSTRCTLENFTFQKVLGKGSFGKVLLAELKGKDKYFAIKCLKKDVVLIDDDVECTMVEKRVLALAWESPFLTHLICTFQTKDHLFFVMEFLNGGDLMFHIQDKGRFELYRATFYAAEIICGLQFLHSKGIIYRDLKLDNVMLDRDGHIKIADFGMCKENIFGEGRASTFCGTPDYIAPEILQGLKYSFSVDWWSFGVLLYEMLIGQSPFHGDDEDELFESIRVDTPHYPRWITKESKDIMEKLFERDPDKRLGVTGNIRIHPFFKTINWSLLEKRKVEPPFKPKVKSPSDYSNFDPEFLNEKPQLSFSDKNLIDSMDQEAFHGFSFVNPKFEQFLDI

## C[C@H]1CCC/C=C/[C@@H]2C[C@H](O)C[C@H]2[C@H](O)/C=C/C(=O)O1 [Brefeldin A]
[1]
  mitochondrial c-Abl activity: increases in mitochondrial c-Abl activity
[2]
  c-Abl levels in the ER fraction: decreases
[3]
  expression of grp78: increases in grp78
[4]
  induction of apoptosis: abrogated
[5]
  c-Abl protein in the mitochondrial fraction, immunoblot: increases in c-Abl protein
[6]
  c-Abl levels in the cytoplasm or nucleus: no detectable effect

## CC(=O)N[C@@H](CS)C(=O)O [NAC, N-acetyl-L-cysteine]
[7]
  effect on H2O2-induced translocation of c-Abl to mitochondria: inhibited
[8]; 30 mM NAC
  effect on H2O2-induced localization of PKCd to mitochondria: inhibits
[9]
  effect on H2O2-induced phosphorylation of GST-Crk(120-225) by c-Abl: inhibited
[10]
  effect on H2O2-induced release of cytochrome c: blocks

## CCCCCCCCCCCCCC(=O)O[C@@H]1[C@@H](C)[C@@]2(O)[C@@H](C=C(CO)C[C@]3(O)C(=O)C(C)=C[C@@H]23)[C@H]2C(C)(C)[C@]12OC(C)=O [TPA]
[8]; 250 nM TPA, 100 nM bryostatin, 0.5 units/ml PLC, 10 μM DOG
  translocation of PKCd to mitochondria: increases in mitochondrial PKCd
[8]; 250 nM TPA, scanned immunoblots
  percent PKCd translocation to mitochondria: approximately 40%
[11]
  apoptosis: induction of apoptosis
[12]
  translocation of PKCd to mitochondria: translocates to mitochondria
[13]
  cytoplasmic or mitochondrial levels of PKCζ: no detectable effect
[14]
  cytoplasmic or mitochondrial levels of PKCγ: no detectable effect
[10]
  cytochrome c release: cytochrome c release

## N.N.[Cl][Pt][Cl] [cisplatin, cis-platinum]
[15]
  c-Abl activity in cytoplasts: no detectable effect

## CC(=O)N[C@@H](CSC(=O)[C@]1([C@@H](O)C(C)C)NC(=O)[C@H](C)[C@@H]1O)C(=O)O [lactacystin]
[16]; c-abl−/−arg−/− cells
  catalase levels: little if any effect
[16]; wild-type MEFs
  catalase levels: increase in catalase levels

## CC(=O)c1c(O)c(C)c(O)c(Cc2c(O)c3c(c(C(=O)/C=C/c4ccccc4)c2O)OC(C)(C)C=C3)c1O [rottlerin]
[7]
  effect on H2O2-induced translocation of c-Abl to mitochondria: inhibited
[7]; rottlerin alone
  constitutive levels of mitochondrial c-Abl: no effect
[8]; 10 μM rottlerin
  effect on TPA-induced localization of PKCd to mitochondria: abrogated
[17]; rottlerin alone
  apoptosis, sub-G1 DNA content: low level of apoptosis
[17]; rottlerin and TPA
  effect on apoptotic response to TPA: significantly attenuated
[10]
  effect on H2O2-induced release of cytochrome c: blocked
  cytochrome c release: detectable release of cytochrome c
[10]; U-937 cells pretreated with rottlerin before TPA
  effect on TPA-induced cytochrome c release: significantly blocks
[18]
  effect on H2O2-induced translocation of PKCd to mitochondria: inhibits

## cyclosporin A
[19]
  effect on H2O2-induced change in Ψ: abrogated
